Data published in patent US20240116988A1, “ANTI-ROR1 MACROCYCLIC PEPTIDES AND COMPOSITIONS” (BRISTOL-MYERS SQUIBB COMPANY, priority 2022, published 2024).
Positions of bridges follow the written chain, without caps; N, C: chain ends. Non-standard residues stand in square brackets, D forms with d. Residues, ends and D or L forms follow the SMILES beside them. ξ: configuration not given here. Bip = N[C@@H](Cc1ccc(-c2ccccc2)cc1)C(=O)O; NMeF = CN[C@@H](Cc1ccccc1)C(=O)O; PEG5 = NCCOCCOCCOCCOCCOCCC(=O)O; Ile(3ξ) = CCC(C)[C@H](N)C(=O)O; NMeA = CN[C@@H](C)C(=O)O; AEEA = NCCOCCOCC(=O)O; Sar = CNCC(=O)O

target: T1, human ROR1 (Homo sapiens, UniProt Q01973); experiment: ROR1 high content cell-based binding assay; conditions: read-out: ROR1 Binding 293T Human HC Cell Based Assay IC50
T1 construct: host or cells: HEK 293T cells, Tet-on system induced with doxycycline
Description: ROR1 high content cell-based binding assay: Human embryonic kidney 293T cells (293T) expressing human ROR1 with Tet-on system by doxycycline were used (Arctic-488134) for the assessment of inhibition of the binding of fluorescently-labeled competing peptide (“Probe”) that specifically binds to human ROR1. […] Cryopreserved vials were thawed in a 37° C. water bath. Cells were washed in assay culture media [DMEM (Life Technologies Inc. Cat. […] Cat. No. 15140-122) and […] dox] and diluted 1.0×10^5 cells/mL. Cells were seeded into PDL-coated 384 well plates (BD Falcon Cat. No. 356663) at 2,000 cells/20 μL. Plates were allowed to incubate for 10 minutes at room temperature and then transferred to a 37° C./5% CO2 incubator for overnight incubation. The next day, 125 nL of the test compound was added using an ECHO followed by the addition of 5 μL/well of 5-FAM-labeled probe to cells at a final concentration of 30 nM. Sample were incubated for 1 hour at 37° C. for 1 hour, followed by 3 washes in […] of dPBS. Cells were fixed by adding 8% (w/v) formaldehyde (Sigma Cat. No. 252549), 20 μg/mL Hoechst (Thermo Scientific Cat. No. 62249) in PBS for 20 minutes at room temperature. The plates were washed 3 more times in dPBS and 15 μl of PBS was left in the wells following the last wash. The plates were sealed, and data was using obtained using a CellInsight NXT High Content Screening Platform IC903000 (Thermo Scientific).

T1 sequence (Q01973 30-937): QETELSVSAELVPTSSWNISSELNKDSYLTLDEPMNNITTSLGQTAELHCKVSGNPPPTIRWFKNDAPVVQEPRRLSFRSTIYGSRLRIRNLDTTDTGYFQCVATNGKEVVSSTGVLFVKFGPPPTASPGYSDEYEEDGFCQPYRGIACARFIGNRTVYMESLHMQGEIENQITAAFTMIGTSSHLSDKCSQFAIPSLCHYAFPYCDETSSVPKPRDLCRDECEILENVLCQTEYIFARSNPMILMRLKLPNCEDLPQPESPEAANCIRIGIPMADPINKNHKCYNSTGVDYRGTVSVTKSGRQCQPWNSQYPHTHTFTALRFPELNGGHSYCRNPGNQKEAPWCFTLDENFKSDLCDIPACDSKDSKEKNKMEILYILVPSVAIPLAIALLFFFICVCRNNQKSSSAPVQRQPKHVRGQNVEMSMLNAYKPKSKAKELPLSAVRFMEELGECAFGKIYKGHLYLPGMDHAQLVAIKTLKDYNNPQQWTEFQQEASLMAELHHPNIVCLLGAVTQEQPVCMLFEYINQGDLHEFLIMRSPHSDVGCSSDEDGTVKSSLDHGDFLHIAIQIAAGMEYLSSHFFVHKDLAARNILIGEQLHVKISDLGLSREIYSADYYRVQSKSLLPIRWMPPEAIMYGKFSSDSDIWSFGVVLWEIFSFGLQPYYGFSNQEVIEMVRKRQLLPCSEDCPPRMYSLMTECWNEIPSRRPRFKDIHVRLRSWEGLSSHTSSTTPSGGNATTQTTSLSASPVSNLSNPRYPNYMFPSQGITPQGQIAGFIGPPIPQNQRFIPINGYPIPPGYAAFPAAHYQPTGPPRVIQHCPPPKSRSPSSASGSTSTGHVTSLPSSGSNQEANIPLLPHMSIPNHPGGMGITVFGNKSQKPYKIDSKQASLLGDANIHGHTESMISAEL

Row | Compound | IC50 [nM]
1 | CC(C)C[C@@H]1NC(=O)[C@H](Cc2ccc(O)cc2)NC(=O)[C@H](Cc2ccccc2)NC(=O)CSC[C@@H](C(=O)NCC(N)=O)NC(=O)[C@H](CC(C)C)NC(=O)[C@H](Cc2ccccc2)N(C)C(=O)[C@H](Cc2ccc(O)cc2)NC(=O)[C@H](Cc2c[nH]c3ccccc23)NC(=O)CNC(=O)[C@H](CO)NC(=O)[C@@H](C)NC(=O)[C@H](C(C)C)NC1=O [Example 1060] ({CH2CO}-FYLV[dA]SGWY[NMeF]LCG-NH2; thioether N-12) | 30
2 | CCC(C)[C@@H]1NC(=O)[C@H](Cc2c[nH]c3ccccc23)NC(=O)[C@H](Cc2ccccc2)NC(=O)[C@H](Cc2ccc(O)cc2)NC(=O)[C@@H](Cc2ccccc2)NC(=O)CSC[C@@H](C(N)=O)NC(=O)[C@H](C)NC(=O)[C@H](C(C)CC)NC(=O)[C@H](C(C)C)NC(=O)[C@H](Cc2c[nH]c3ccccc23)NC(=O)[C@H](CCCNC(=N)N)NC(=O)CNC1=O (some centres unmarked) [Example 1050] ({CH2CO}-[dF]YFW[Ile(3ξ)]GRWV[Ile(3ξ)]AC-NH2; thioether N-12) | 15
3 | CC(C)C[C@@H]1NC(=O)[C@H](Cc2ccc(O)cc2)NC(=O)[C@H](Cc2ccccc2)NC(=O)CSC[C@@H](C(=O)NCC(N)=O)NC(=O)[C@H](CC(C)C)NC(=O)[C@H](Cc2ccccc2)N(C)C(=O)[C@H](Cc2ccc(O)cc2)NC(=O)[C@H](Cc2c[nH]c3ccccc23)NC(=O)CNC(=O)[C@H](CCCNC(=N)N)NC(=O)[C@H](Cc2ccc(O)cc2)NC(=O)[C@H](C(C)C)NC1=O [Example 1018] ({CH2CO}-FYLVYRGWY[NMeF]LCG-NH2; thioether N-12) | 30
4 | CC(C)C[C@@H]1NC(=O)[C@H](Cc2ccc(O)cc2)NC(=O)[C@H](Cc2ccccc2)NC(=O)CSC[C@@H](C(=O)NCC(N)=O)NC(=O)[C@H](CC(C)C)NC(=O)[C@H](Cc2ccccc2)N(C)C(=O)[C@H](Cc2ccc(O)cc2)NC(=O)[C@H](Cc2c[nH]c3ccccc23)NC(=O)[C@H](CCCCN)NC(=O)[C@H](CO)NC(=O)[C@H](Cc2ccc(O)cc2)NC(=O)[C@H](C(C)C)NC1=O [Example 1056] ({CH2CO}-FYLVYSKWY[NMeF]LCG-NH2; thioether N-12) | 740
5 | CC(C)C[C@@H]1NC(=O)[C@H](Cc2ccccc2)N(C)C(=O)[C@H](Cc2ccc(O)cc2)NC(=O)[C@H](Cc2c[nH]c3ccccc23)NC(=O)CNC(=O)[C@H](CO)NC(=O)[C@H](Cc2ccc(O)cc2)NC(=O)[C@H](C(C)C)NC(=O)[C@H](CCCNC(=N)N)NC(=O)[C@H](Cc2ccc(O)cc2)NC(=O)[C@H](Cc2ccccc2)NC(=O)CSC[C@@H](C(=O)NCC(N)=O)NC1=O [Example 1046] ({CH2CO}-FYRVYSGWY[NMeF]LCG-NH2; thioether N-12) | 6
6 | CC(C)C[C@@H]1NC(=O)[C@H](Cc2ccc(O)cc2)NC(=O)[C@H](Cc2ccccc2)NC(=O)CSC[C@@H](C(=O)NCC(N)=O)NC(=O)[C@H](CC(C)C)NC(=O)[C@H](Cc2ccccc2)N(C)C(=O)[C@H](Cc2ccc(O)cc2)NC(=O)[C@H](Cc2c[nH]c3ccccc23)NC(=O)CNC(=O)[C@H](Cc2cnc[nH]2)NC(=O)[C@H](Cc2ccc(O)cc2)NC(=O)[C@H](C(C)C)NC1=O [Example 1015] ({CH2CO}-FYLVYHGWY[NMeF]LCG-NH2; thioether N-12) | 17
7 | CC(C)C[C@@H]1NC(=O)[C@H](Cc2ccc(O)cc2)NC(=O)[C@H](Cc2ccccc2)NC(=O)CSC[C@@H](C(=O)NCC(N)=O)NC(=O)[C@H](CC(C)C)NC(=O)[C@H](Cc2ccccc2)N(C)C(=O)[C@H](Cc2ccc(O)cc2)NC(=O)[C@H](Cc2c[nH]c3ccccc23)NC(=O)CNC(=O)[C@@H](C)NC(=O)[C@H](Cc2ccc(O)cc2)NC(=O)[C@H](C(C)C)NC1=O [Example 1048] ({CH2CO}-FYLVY[dA]GWY[NMeF]LCG-NH2; thioether N-12) | 666
8 | CC(C)C[C@@H]1NC(=O)[C@H](Cc2ccc(O)cc2)NC(=O)[C@H](Cc2ccccc2)NC(=O)CSC[C@@H](C(=O)NCC(N)=O)NC(=O)[C@H](CC(C)C)NC(=O)[C@H](Cc2ccccc2)N(C)C(=O)[C@H](Cc2ccc(O)cc2)NC(=O)[C@H](Cc2c[nH]c3ccccc23)NC(=O)CNC(=O)[C@H](CO)NC(=O)[C@H](CC(N)=O)NC(=O)[C@H](C(C)C)NC1=O [Example 1024] ({CH2CO}-FYLVNSGWY[NMeF]LCG-NH2; thioether N-12) | 620

Now from value to molecule:

Row | IC50 [nM] | Compound
9 | 67 | CC(C)C[C@@H]1NC(=O)[C@H](Cc2ccc(O)cc2)NC(=O)[C@H](Cc2ccccc2)NC(=O)CSC[C@@H](C(=O)NCCOCCOCC(=O)O)NC(=O)[C@H](CC(C)C)NC(=O)[C@H](Cc2ccccc2)N(C)C(=O)[C@H](Cc2ccc(O)cc2)NC(=O)[C@H](Cc2c[nH]c3ccccc23)NC(=O)CNC(=O)[C@H](CO)NC(=O)[C@H](Cc2ccc(O)cc2)NC(=O)[C@H](C(C)C)NC1=O [Example 1090] ({CH2CO}-FYLVYSGWY[NMeF]LC[AEEA]-OH; thioether N-12)
10 | 645 | CC(C)C[C@@H]1NC(=O)[C@H](Cc2ccc(O)cc2)NC(=O)[C@H](Cc2ccccc2)NC(=O)CSC[C@@H](C(=O)NCC(N)=O)NC(=O)[C@@H](C)NC(=O)[C@H](Cc2ccccc2)N(C)C(=O)[C@H](Cc2ccc(O)cc2)NC(=O)[C@H](Cc2c[nH]c3ccccc23)NC(=O)CNC(=O)[C@H](CO)NC(=O)[C@H](Cc2ccc(O)cc2)NC(=O)[C@H](C(C)C)NC1=O [Example 1061] ({CH2CO}-FYLVYSGWY[NMeF][dA]CG-NH2; thioether N-12)
11 | 121 | CC(C)C[C@@H]1NC(=O)[C@H](CC(N)=O)NC(=O)[C@H](Cc2ccccc2)N(C)C(=O)CNC(=O)[C@H](Cc2ccc(O)cc2)NC(=O)[C@H](Cc2ccccc2)NC(=O)CSC[C@@H](C(=O)NCC(N)=O)NC(=O)[C@H](Cc2c[nH]c3ccccc23)NC(=O)[C@H](Cc2ccc(O)cc2)NC1=O [Example 1100] ({CH2CO}-FYG[NMeF]NLYWCG-NH2; thioether N-9)
12 | 20 | CC(C)C[C@@H]1NC(=O)[C@H](Cc2ccccc2)N(C)C(=O)[C@H](Cc2ccc(O)cc2)NC(=O)[C@H](Cc2c[nH]c3ccccc23)NC(=O)CNC(=O)[C@H](CO)NC(=O)[C@H](Cc2ccc(O)cc2)NC(=O)[C@H](C(C)C)NC(=O)[C@H](C)N(C)C(=O)[C@H](Cc2ccc(O)cc2)NC(=O)[C@H](Cc2ccccc2)NC(=O)CSC[C@@H](C(=O)NCC(N)=O)NC1=O [Example 1062] ({CH2CO}-FY[NMeA]VYSGWY[NMeF]LCG-NH2; thioether N-12)
13 | 346 | CC(C)C[C@@H]1NC(=O)[C@H](Cc2ccccc2)NC(=O)CSC[C@@H](C(=O)NCC(N)=O)NC(=O)[C@H](C(C)C)NC(=O)[C@H](Cc2c[nH]c3ccccc23)NC(=O)[C@H](CC(C)C)NC(=O)[C@H](Cc2c[nH]c3ccccc23)NC(=O)CN(C)C(=O)CNC(=O)[C@H](C(C)C)NC(=O)[C@H](Cc2c[nH]c3ccccc23)NC1=O [Example 1205] ({CH2CO}-FLWVG[Sar]WLWVCG-NH2; thioether N-11)
14 | 22 | CC(C)C[C@@H]1NC(=O)[C@H](Cc2ccc(O)cc2)NC(=O)[C@H](Cc2ccccc2)NC(=O)CSC[C@@H](C(=O)NCCOCCOCCOCCOCCOCCC(=O)N[C@@H](CCCCN)C(N)=O)NC(=O)[C@H](CC(C)C)NC(=O)[C@H](Cc2ccccc2)N(C)C(=O)[C@H](Cc2ccc(O)cc2)NC(=O)[C@H](Cc2c[nH]c3ccccc23)NC(=O)CNC(=O)[C@H](CO)NC(=O)[C@H](Cc2ccc(O)cc2)NC(=O)[C@H](C(C)C)NC1=O [Example 1083] ({CH2CO}-FYLVYSGWY[NMeF]LC[PEG5]K-NH2; thioether N-12)
15 | 228 | CC(C)C[C@@H]1NC(=O)[C@H](Cc2ccccc2)NC(=O)CSC[C@@H](C(N)=O)NC(=O)[C@H](C(C)C)NC(=O)[C@H](Cc2ccccc2)N(C)C(=O)[C@H](CC(C)C)NC(=O)[C@H](Cc2c[nH]c3ccccc23)NC(=O)CN(C)C(=O)CNC(=O)[C@H](C(C)C)NC(=O)[C@H](Cc2ccc(-c3ccccc3)cc2)NC1=O [Example 1204] ({CH2CO}-FL[Bip]VG[Sar]WL[NMeF]VC-NH2; thioether N-11)
16 | 65 | CC(C)C[C@@H]1NC(=O)[C@H](Cc2ccccc2)NC(=O)[C@H](Cc2ccc(O)cc2)NC(=O)[C@H](Cc2c[nH]c3ccccc23)NC(=O)CNC(=O)[C@H](CO)NC(=O)[C@H](Cc2ccc(O)cc2)NC(=O)[C@H](C(C)C)NC(=O)[C@H](CC(C)C)NC(=O)[C@H](Cc2ccc(O)cc2)NC(=O)[C@H](Cc2ccccc2)NC(=O)CSC[C@@H](C(=O)NCC(N)=O)NC1=O [Example 1070] ({CH2CO}-FYLVYSGWYFLCG-NH2; thioether N-12)
17 | 364 | CC(C)C[C@@H]1NC(=O)[C@H](Cc2ccccc2)NC(=O)CSC[C@@H](C(=O)NCCOCCOCC(=O)O)NC(=O)[C@H](C)NC(=O)[C@H](Cc2ccc(O)cc2)NC(=O)[C@H](Cc2ccc(O)cc2)NC(=O)[C@H](Cc2c[nH]c3ccccc23)NC(=O)CNC(=O)[C@H](Cc2ccc(O)cc2)NC(=O)[C@H](CCCNC(=N)N)NC(=O)[C@H](C(C)C)NC(=O)[C@H](Cc2c[nH]c3ccccc23)NC1=O [Example 1086] ({CH2CO}-FLWVRYGWYYAC[AEEA]-OH; thioether N-12)
